In US20180112258A1, “MEDICAL USES AND METHODS FOR TREATING CANCER USING MONOPOLAR SPINDLE 1 (MPS1) KINASE INHIBITORS” (THE INSTITUTE OF CANCER RESEARCH: ROYAL CANCER HOSPITAL, priority 2015, published 2018):

Columns and labels:
[1] = test system: HCT116 cells containing MPS1 p.M600T; experiment: Cell viability assay, HCT116 NvR clones with MPS1 p.M600T (NvR1 etc.); conditions: for Resistance conferred by mutation p.M600T: summary table of inhibitors vs mutations
[2] = test system: HCT116 cells containing MPS1 p.C604W; experiment: Cell viability assay, HCT116 NvR clones with MPS1 p.C604W (NvR12 etc.)

Row | SMILES | fold resistance in cell viability assay vs parental ([1]; p.M600T (NvR1)) | Resistance conferred by mutation p.M600T [1] | resistance / potency in cell viability assay vs parental ([2]; p.C604W (NvR12)) | Resistance conferred by mutation p.C604W ([2]; summary table of inhibitors vs mutations)
1 | Cc1ncc(-c2ccc(Nc3cc4c(cn3)cc(-c3cnn(C)c3)n4C(=O)OC(C)C)c(F)c2)n1C [Compound 3, isopropyl 6-(4-(1,2-dimethyl-1H-imidazol-5-yl)-2-fluorophenylamino)-2-(1-methyl-1H-pyrazol-4-yl)-1H-pyrrolo[3,2-c]pyridine-1-carboxylate] | ~2 fold | R | more potent | –
2 | CC(C)(C)Nc1nc(Nc2ccc(C(N)=O)cc2)cc(N)c1C#N [SNG12] | – | R | – | R
